In the NIST ThermoML archive (doi:10.1016/j.tca.2016.03.002):

Assays:
[1] = xn = mol fraction of the nth substance listed; details: 100 kPa, Liquid; for viscosity: Capillary tube (Ostwald / Ubbelohde) method; for mass density: Vibrating tube method
[2] = relative permittivity at various frequencies (dimensionless); xn = mol fraction of the nth substance listed; details: 100 kPa, Liquid, Frequency=30 MHz, Parallel plate capacitor

NC1CCCCC1 [cyclohexylamine] + CO
Details | mass density, [1] [kg/m3] | relative permittivity, [2] | viscosity, [1] [mPa·s]
293.15 K, x2 = 0 | 866.86 | 4.65 | 2.142
293.15 K, x2 = 0.0666 | 867.932 | – | 2.16
293.15 K, x2 = 0.0702 | – | 5.34 | –
293.15 K, x2 = 0.1108 | 868.284 | – | 2.17
293.15 K, x2 = 0.1177 | – | 5.88 | –
293.15 K, x2 = 0.2006 | – | 7.01 | –
293.15 K, x2 = 0.2089 | 869.337 | – | 2.18
293.15 K, x2 = 0.3043 | 869.454 | – | 2.19
293.15 K, x2 = 0.3049 | – | 8.78 | –
293.15 K, x2 = 0.4041 | – | 10.87 | –
293.15 K, x2 = 0.4097 | 868.83 | – | 2.16
293.15 K, x2 = 0.4479 | 868.248 | – | 2.13
293.15 K, x2 = 0.493 | 867.202 | – | 2.07
293.15 K, x2 = 0.4986 | – | 13.26 | –
293.15 K, x2 = 0.5392 | – | 14.55 | –
293.15 K, x2 = 0.5478 | 865.137 | – | 1.99
293.15 K, x2 = 0.5961 | 862.688 | – | 1.89
293.15 K, x2 = 0.597 | – | 16.28 | –
293.15 K, x2 = 0.659 | 858.061 | – | 1.7
293.15 K, x2 = 0.6609 | – | 18.6 | –
293.15 K, x2 = 0.6986 | – | 19.95 | –
293.15 K, x2 = 0.7014 | 853.915 | – | 1.56
293.15 K, x2 = 0.746 | – | 21.72 | –
293.15 K, x2 = 0.798 | 841.114 | – | 1.22
293.15 K, x2 = 0.7997 | – | 23.89 | –
293.15 K, x2 = 0.8572 | – | 26.33 | –
293.15 K, x2 = 0.8985 | – | 28.32 | –
293.15 K, x2 = 0.8992 | 820.891 | – | 0.89
293.15 K, x2 = 0.949 | – | 30.74 | –
293.15 K, x2 = 0.9503 | 807.371 | – | 0.72
298.15 K, x2 = 0 | 862.315 | 4.56 | 1.908
298.15 K, x2 = 0.0666 | 863.427 | – | 1.92
298.15 K, x2 = 0.0702 | – | 5.23 | –
298.15 K, x2 = 0.1108 | 863.705 | – | 1.93
298.15 K, x2 = 0.1177 | – | 5.75 | –
298.15 K, x2 = 0.2006 | – | 6.84 | –
298.15 K, x2 = 0.2089 | 864.848 | – | 1.94
298.15 K, x2 = 0.3043 | 864.932 | – | 1.94
298.15 K, x2 = 0.3049 | – | 8.55 | –
298.15 K, x2 = 0.4041 | – | 10.58 | –
298.15 K, x2 = 0.4097 | 864.276 | – | 1.91
298.15 K, x2 = 0.4479 | 863.674 | – | 1.88
298.15 K, x2 = 0.493 | 862.605 | – | 1.83
298.15 K, x2 = 0.4986 | – | 12.88 | –
298.15 K, x2 = 0.5392 | – | 14.1 | –
298.15 K, x2 = 0.5478 | 860.518 | – | 1.76
298.15 K, x2 = 0.5961 | 858.069 | – | 1.67
298.15 K, x2 = 0.597 | – | 15.73 | –
298.15 K, x2 = 0.659 | 853.437 | – | 1.52
298.15 K, x2 = 0.6609 | – | 18.05 | –
298.15 K, x2 = 0.6986 | – | 19.34 | –
298.15 K, x2 = 0.7014 | 849.321 | – | 1.4
298.15 K, x2 = 0.746 | – | 21.14 | –
298.15 K, x2 = 0.798 | 836.513 | – | 1.11
298.15 K, x2 = 0.7997 | – | 23.16 | –
298.15 K, x2 = 0.8572 | – | 25.55 | –
298.15 K, x2 = 0.8985 | – | 27.5 | –
298.15 K, x2 = 0.8992 | 816.251 | – | 0.78
298.15 K, x2 = 0.949 | – | 29.87 | –
298.15 K, x2 = 0.9503 | 802.691 | – | 0.67
303.15 K, x2 = 0 | 857.774 | 4.47 | 1.697
303.15 K, x2 = 0.0666 | 858.919 | – | 1.71
303.15 K, x2 = 0.0702 | – | 5.13 | –
303.15 K, x2 = 0.1108 | 859.196 | – | 1.71
303.15 K, x2 = 0.1177 | – | 5.63 | –
303.15 K, x2 = 0.2006 | – | 6.68 | –
303.15 K, x2 = 0.2089 | 860.385 | – | 1.72
303.15 K, x2 = 0.3043 | 860.42 | – | 1.72
303.15 K, x2 = 0.3049 | – | 8.32 | –
303.15 K, x2 = 0.4041 | – | 10.29 | –
303.15 K, x2 = 0.4097 | 859.728 | – | 1.69
303.15 K, x2 = 0.4479 | 859.094 | – | 1.66
303.15 K, x2 = 0.4931 | 858.005 | – | 1.62
303.15 K, x2 = 0.4986 | – | 12.47 | –
303.15 K, x2 = 0.5392 | – | 13.66 | –
303.15 K, x2 = 0.5478 | 855.9 | – | 1.56
303.15 K, x2 = 0.5966 | 853.451 | – | 1.48
303.15 K, x2 = 0.597 | – | 15.28 | –
303.15 K, x2 = 0.659 | 848.818 | – | 1.35
303.15 K, x2 = 0.6609 | – | 17.5 | –
303.15 K, x2 = 0.6986 | – | 18.73 | –
303.15 K, x2 = 0.7014 | 844.723 | – | 1.26
303.15 K, x2 = 0.746 | – | 20.47 | –
303.15 K, x2 = 0.798 | 831.905 | – | 1.04
303.15 K, x2 = 0.7997 | – | 22.46 | –
303.15 K, x2 = 0.8535 | – | 24.61 | –
303.15 K, x2 = 0.8985 | – | 26.7 | –
303.15 K, x2 = 0.8992 | 811.617 | – | 0.75
303.15 K, x2 = 0.949 | – | 28.96 | –
303.15 K, x2 = 0.9503 | 798.008 | – | 0.62
